{"source": "the supplement of paper PMC10307832", "assay_in_all_cases": "relative viability (nuclei count vs DMSO), 5 days (fraction); higher = more cells survive", "key": {"SK-MES-1": {"tested_on": "SK-MES-1", "outline": "(§1)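 The day after seeding in 1536-well plates, lung cancer cell lines were treated by pin tool with a single drug, or with a fixed anchor-drug dose together with five library-drug doses (not always all listed) in √10 steps. After 5 days, a combined fix-and-stain solution (final 0.05% Triton X-100, 1% formaldehyde, 1 ug/ml Hoechst) was added. Nuclei counted on 4× images gave relative viability as treated counts over vehicle counts, reported as the median of duplicate plates.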"}, "PC-14": {"tested_on": "PC-14", "outline": "as §1"}, "NCI-H460": {"tested_on": "NCI-H460", "outline": "as §1"}, "NCI-H322M": {"tested_on": "NCI-H322M", "outline": "as §1"}, "NCI-H1915": {"tested_on": "NCI-H1915", "outline": "as §1"}, "NCI-H1563": {"tested_on": "NCI-H1563", "outline": "as §1"}, "NCI-H1651": {"tested_on": "NCI-H1651", "outline": "as §1"}, "NCI-H661": {"tested_on": "NCI-H661", "outline": "as §1"}, "NCI-H3122": {"tested_on": "NCI-H3122", "outline": "as §1"}, "RERF-LC-KJ": {"tested_on": "RERF-LC-KJ", "outline": "as §1"}, "NCI-H727": {"tested_on": "NCI-H727", "outline": "as §1"}, "NCI-H2347": {"tested_on": "NCI-H2347", "outline": "as §1"}, "NCI-H596": {"tested_on": "NCI-H596", "outline": "as §1"}, "LXF-289": {"tested_on": "LXF-289", "outline": "as §1"}, "NCI-H1355": {"tested_on": "NCI-H1355", "outline": "as §1"}, "NCI-H1792": {"tested_on": "NCI-H1792", "outline": "as §1"}, "NCI-H1755": {"tested_on": "NCI-H1755", "outline": "as §1"}, "NCI-H441": {"tested_on": "NCI-H441", "outline": "as §1"}, "LCLC-103H": {"tested_on": "LCLC-103H", "outline": "as §1"}, "NCI-H520": {"tested_on": "NCI-H520", "outline": "as §1"}}, "data": [{"smiles": "COc1nc(C)cnc1NS(=O)(=O)c1cccnc1-c1ccc(-c2nnco2)cc1", "note": "[Zibotentan] + Cc1nc(NC(=O)N2CCC[C@H]2C(N)=O)sc1-c1ccnc(C(C)(C)C(F)(F)F)c1 [Alpelisib] (partner 2 µM)", "values": [{"measurement": "relative viability", "setting": "SK-MES-1; first compound 0.08 µM", "result": 0.947}, {"measurement": "relative viability", "setting": "SK-MES-1; first compound 0.253 µM", "result": 0.871}, {"measurement": "relative viability", "setting": "SK-MES-1; first compound 0.8 µM", "result": 0.948}, {"measurement": "relative viability", "setting": "SK-MES-1; first compound 2.53 µM", "result": 0.989}, {"measurement": "relative viability", "setting": "PC-14; first compound 0.08 µM", "result": 0.98}, {"measurement": "relative viability", "setting": "PC-14; first compound 0.253 µM", "result": 0.872}, {"measurement": "relative viability", "setting": "PC-14; first compound 0.8 µM", "result": 1.06}, {"measurement": "relative viability", "setting": "PC-14; first compound 2.53 µM", "result": 0.944}, {"measurement": "relative viability", "setting": "NCI-H460; first compound 0.08 µM", "result": 0.58}, {"measurement": "relative viability", "setting": "NCI-H460; first compound 0.8 µM", "result": 0.57}, {"measurement": "relative viability", "setting": "NCI-H460; first compound 2.53 µM", "result": 0.452}, {"measurement": "relative viability", "setting": "NCI-H322M; first compound 0.08 µM", "result": 0.692}, {"measurement": "relative viability", "setting": "NCI-H322M; first compound 0.253 µM", "result": 0.704}, {"measurement": "relative viability", "setting": "NCI-H322M; first compound 0.8 µM", "result": 0.719}, {"measurement": "relative viability", "setting": "NCI-H322M; first compound 2.53 µM", "result": 0.905}, {"measurement": "relative viability", "setting": "NCI-H1915; first compound 0.08 µM", "result": 1.14}, {"measurement": "relative viability", "setting": "NCI-H1915; first compound 0.253 µM", "result": 1.1}, {"measurement": "relative viability", "setting": "NCI-H1915; first compound 0.8 µM", "result": 1.09}, {"measurement": "relative viability", "setting": "NCI-H1915; first compound 2.53 µM", "result": 1.03}, {"measurement": "relative viability", "setting": "NCI-H1563; first compound 0.08 µM", "result": 0.978}, {"measurement": "relative viability", "setting": "NCI-H1563; first compound 0.253 µM", "result": 0.666}, {"measurement": "relative viability", "setting": "NCI-H1563; first compound 0.8 µM", "result": 1.01}, {"measurement": "relative viability", "setting": "NCI-H1563; first compound 2.53 µM", "result": 1.02}, {"measurement": "relative viability", "setting": "NCI-H1651; first compound 0.08 µM", "result": 0.882}, {"measurement": "relative viability", "setting": "NCI-H1651; first compound 0.253 µM", "result": 0.88}, {"measurement": "relative viability", "setting": "NCI-H1651; first compound 0.8 µM", "result": 0.88}, {"measurement": "relative viability", "setting": "NCI-H1651; first compound 2.53 µM", "result": 1.04}, {"measurement": "relative viability", "setting": "NCI-H661; first compound 0.08 µM", "result": 0.717}, {"measurement": "relative viability", "setting": "NCI-H661; first compound 0.253 µM", "result": 0.49}, {"measurement": "relative viability", "setting": "NCI-H661; first compound 0.8 µM", "result": 0.569}, {"measurement": "relative viability", "setting": "NCI-H661; first compound 2.53 µM", "result": 0.578}, {"measurement": "relative viability", "setting": "NCI-H3122; first compound 0.08 µM", "result": 0.801}, {"measurement": "relative viability", "setting": "NCI-H3122; first compound 0.253 µM", "result": 0.773}, {"measurement": "relative viability", "setting": "NCI-H3122; first compound 0.8 µM", "result": 0.76}, {"measurement": "relative viability", "setting": "NCI-H3122; first compound 2.53 µM", "result": 0.822}, {"measurement": "relative viability", "setting": "RERF-LC-KJ; first compound 0.08 µM", "result": 0.865}, {"measurement": "relative viability", "setting": "RERF-LC-KJ; first compound 0.253 µM", "result": 0.898}, {"measurement": "relative viability", "setting": "RERF-LC-KJ; first compound 0.8 µM", "result": 0.826}, {"measurement": "relative viability", "setting": "RERF-LC-KJ; first compound 2.53 µM", "result": 0.83}, {"measurement": "relative viability", "setting": "NCI-H727; first compound 0.08 µM", "result": 0.483}, {"measurement": "relative viability", "setting": "NCI-H727; first compound 0.253 µM", "result": 0.794}, {"measurement": "relative viability", "setting": "NCI-H727; first compound 0.8 µM", "result": 0.55}, {"measurement": "relative viability", "setting": "NCI-H727; first compound 2.53 µM", "result": 0.643}, {"measurement": "relative viability", "setting": "NCI-H2347; first compound 0.08 µM", "result": 1.15}, {"measurement": "relative viability", "setting": "NCI-H2347; first compound 0.253 µM", "result": 1.04}, {"measurement": "relative viability", "setting": "NCI-H2347; first compound 0.8 µM", "result": 1.09}, {"measurement": "relative viability", "setting": "NCI-H2347; first compound 2.53 µM", "result": 1.08}, {"measurement": "relative viability", "setting": "NCI-H596; first compound 0.08 µM", "result": 0.532}, {"measurement": "relative viability", "setting": "NCI-H596; first compound 0.253 µM", "result": 0.482}, {"measurement": "relative viability", "setting": "NCI-H596; first compound 0.8 µM", "result": 0.485}, {"measurement": "relative viability", "setting": "NCI-H596; first compound 2.53 µM", "result": 0.484}, {"measurement": "relative viability", "setting": "LXF-289; first compound 0.08 µM", "result": 1.03}, {"measurement": "relative viability", "setting": "LXF-289; first compound 0.253 µM", "result": 1.04}, {"measurement": "relative viability", "setting": "LXF-289; first compound 0.8 µM", "result": 1.11}, {"measurement": "relative viability", "setting": "LXF-289; first compound 2.53 µM", "result": 1.09}, {"measurement": "relative viability", "setting": "NCI-H1355; first compound 0.08 µM", "result": 0.942}, {"measurement": "relative viability", "setting": "NCI-H1355; first compound 0.253 µM", "result": 0.898}, {"measurement": "relative viability", "setting": "NCI-H1355; first compound 0.8 µM", "result": 0.825}, {"measurement": "relative viability", "setting": "NCI-H1355; first compound 2.53 µM", "result": 0.794}, {"measurement": "relative viability", "setting": "NCI-H1792; first compound 0.08 µM", "result": 0.621}, {"measurement": "relative viability", "setting": "NCI-H1792; first compound 0.253 µM", "result": 0.58}, {"measurement": "relative viability", "setting": "NCI-H1792; first compound 0.8 µM", "result": 0.559}, {"measurement": "relative viability", "setting": "NCI-H1792; first compound 2.53 µM", "result": 0.648}, {"measurement": "relative viability", "setting": "NCI-H1755; first compound 0.08 µM", "result": 0.887}, {"measurement": "relative viability", "setting": "NCI-H1755; first compound 0.253 µM", "result": 0.911}, {"measurement": "relative viability", "setting": "NCI-H1755; first compound 0.8 µM", "result": 0.937}, {"measurement": "relative viability", "setting": "NCI-H1755; first compound 2.53 µM", "result": 0.94}, {"measurement": "relative viability", "setting": "NCI-H441; first compound 0.08 µM", "result": 0.757}, {"measurement": "relative viability", "setting": "NCI-H441; first compound 0.8 µM", "result": 0.776}, {"measurement": "relative viability", "setting": "NCI-H441; first compound 2.53 µM", "result": 0.779}, {"measurement": "relative viability", "setting": "LCLC-103H; first compound 0.08 µM", "result": 0.955}, {"measurement": "relative viability", "setting": "LCLC-103H; first compound 0.253 µM", "result": 0.969}, {"measurement": "relative viability", "setting": "LCLC-103H; first compound 0.8 µM", "result": 1.01}, {"measurement": "relative viability", "setting": "LCLC-103H; first compound 2.53 µM", "result": 1.05}, {"measurement": "relative viability", "setting": "NCI-H520; first compound 0.08 µM", "result": 0.928}, {"measurement": "relative viability", "setting": "NCI-H520; first compound 0.253 µM", "result": 0.848}, {"measurement": "relative viability", "setting": "NCI-H520; first compound 0.8 µM", "result": 0.768}, {"measurement": "relative viability", "setting": "NCI-H520; first compound 2.53 µM", "result": 0.972}]}]}
